These compounds were tested against T1, HDAC6 enzyme (Homo sapiens, UniProt Q9UBN7) (assay: HDAC6 enzyme inhibitory activity (HDAC-Glo I/II Assay kit)). Settings: 10 μM; wells without enzyme = 100% inhibition.
T1 construct: transducing full length HDAC6 gene into Sf-9 insect cells; GST; purchased SignalChem; host or cells: Sf-9 insect cells
T1 sequence (Q9UBN7 1-1215): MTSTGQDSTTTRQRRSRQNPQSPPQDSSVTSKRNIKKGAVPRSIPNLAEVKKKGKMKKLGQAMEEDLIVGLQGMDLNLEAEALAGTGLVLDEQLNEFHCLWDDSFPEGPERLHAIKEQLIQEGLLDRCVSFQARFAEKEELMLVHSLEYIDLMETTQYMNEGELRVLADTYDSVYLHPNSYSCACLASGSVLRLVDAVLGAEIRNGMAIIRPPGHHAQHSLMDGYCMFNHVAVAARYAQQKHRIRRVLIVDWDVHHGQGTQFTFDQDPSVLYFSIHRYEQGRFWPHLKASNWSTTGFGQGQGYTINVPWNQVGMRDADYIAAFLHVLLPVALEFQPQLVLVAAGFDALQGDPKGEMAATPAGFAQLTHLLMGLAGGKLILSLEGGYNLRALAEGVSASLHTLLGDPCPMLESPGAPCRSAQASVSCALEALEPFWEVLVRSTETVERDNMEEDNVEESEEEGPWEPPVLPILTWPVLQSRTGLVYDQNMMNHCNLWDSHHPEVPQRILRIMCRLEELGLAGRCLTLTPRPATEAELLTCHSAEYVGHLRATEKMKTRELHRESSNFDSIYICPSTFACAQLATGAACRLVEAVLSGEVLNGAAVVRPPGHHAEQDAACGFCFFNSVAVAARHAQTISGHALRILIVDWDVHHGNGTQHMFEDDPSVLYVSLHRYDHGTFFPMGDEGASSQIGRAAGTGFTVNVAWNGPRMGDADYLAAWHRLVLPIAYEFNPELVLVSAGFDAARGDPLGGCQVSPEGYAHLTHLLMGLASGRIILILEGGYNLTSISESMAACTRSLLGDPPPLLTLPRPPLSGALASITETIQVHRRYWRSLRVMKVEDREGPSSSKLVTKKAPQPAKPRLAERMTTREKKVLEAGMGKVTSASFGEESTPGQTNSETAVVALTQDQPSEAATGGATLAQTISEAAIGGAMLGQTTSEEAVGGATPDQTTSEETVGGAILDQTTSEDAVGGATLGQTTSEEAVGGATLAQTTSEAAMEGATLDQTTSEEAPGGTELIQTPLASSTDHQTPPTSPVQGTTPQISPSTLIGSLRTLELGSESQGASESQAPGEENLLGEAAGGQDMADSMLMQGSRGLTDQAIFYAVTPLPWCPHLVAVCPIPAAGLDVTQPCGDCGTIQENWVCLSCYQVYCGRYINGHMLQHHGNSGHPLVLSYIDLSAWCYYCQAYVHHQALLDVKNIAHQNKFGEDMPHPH
Format: biochemical
Summary of the method: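 Luminescent HDAC-Glo I/II readout after 20 min room-temperature reaction with substrate-developer, following 60 min compound–enzyme preincubation. Enzyme: full-length HDAC6 from Sf-9 cells, GST-purified; buffer 24 mM Tris-HCl pH 7.5, 0.01% Tween-20, glutathione, salts. Wells lacking enzyme define 100% inhibition.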

`O=C1c2cc(-c3nnc(C(F)F)o3)ccc2CN1N1CCCC1c1ccccn1` (stereo not drawn) [Example 596, 6-(5-(difluoromethyl)-1,3,4-oxadiazol-2-yl)-2-(2-(pyridin-2-yl)pyrrolidin-1-yl)isoindolin-1-one (optical isomer)] was tested, and the “HDAC6 inhibitory rate (%) (10 μM)” value was 100%.

Same assay, conditions: 10 μM; wells without enzyme = 100% inhibition; read-out: HDAC6 inhibitory rate (%) (10 μM)

Compared with `O=C(N[C@H]1[C@H](N2Cc3ncc(-c4nnc(C(F)F)o4)cc3C2=O)CCCC1(F)F)C(C(F)(F)F)C(F)(F)F` [Example 613, N-((1S,6R)-6-(3-(5-(difluoromethyl)-1,3,4-oxadiazol-2-yl)-5-oxo-5,7-dihydro-6H-pyrrolo[3,4-b]pyridin-6-yl)-2,2-difluorocyclohexyl)-3,3,3-trifluoro-2-(trifluoromethyl)propanamide], `O=C1c2cc(-c3nnc(C(F)F)o3)cc(F)c2CN1[C@@H]1CCOC[C@H]1NC(=O)C(F)(F)C(F)(F)F` [Example 200, N-((3S,4R)-4-(6-(5-(difluoromethyl)-1,3,4-oxadiazol-2-yl)-4-fluoro-1-oxo-1,3-dihydro-2H-isoindol-2-yl)tetrahydro-2H-pyran-3-yl)-2,2,3,3,3-pentafluoropropanamide] is higher in inhibition at 10 µM: 99% for the first, 100% for the second.

First: O=C1c2cc(-c3nnc(C(F)F)o3)ccc2CN1c1ccccc1-c1ccc(F)cc1F [Example 310, 2-(2′,4′-difluorobiphenyl-2-yl)-6-(5-(difluoromethyl)-1,3,4-oxadiazol-2-yl)isoindolin-1-one]
Second: O=C1c2cc(-c3nnc(C(F)F)o3)ccc2CN1c1ccccc1-c1cccc(Cl)c1 [Example 283, 2-(3′-chlorobiphenyl-2-yl)-6-(5-(difluoromethyl)-1,3,4-oxadiazol-2-yl)isoindolin-1-one]
The inhibition at 10 µM of the first is lower: 91% for the first, 99% for the second.

`Cc1ccc(S(=O)(=O)N2CCOC[C@@H]2CN2Cc3ccc(-c4nnc(C(F)F)o4)cc3C2=O)cc1` [Example 49, 6-(5-(difluoromethyl)-1,3,4-oxadiazol-2-yl)-2-(((3S)-4-((4-methylphenyl)sulfonyl)morpholin-3-yl)methyl)isoindolin-1-one] and `O=C1c2cc(-c3nnc(C(F)F)o3)ccc2CN1C[C@H]1COCCN1C(=O)C1CC1` [Example 45, 2-(((3S)-4-(cyclopropylcarbonyl)morpholin-3-yl)methyl)-6-(5-(difluoromethyl)-1,3,4-oxadiazol-2-yl)isoindolin-1-one] are the same in inhibition at 10 µM: 99% for the first, 99% for the second.

Going from `O=C1c2cc(-c3nnc(C(F)F)o3)cc(F)c2CN1Cc1ccccn1` [Example 155, 6-(5-(difluoromethyl)-1,3,4-oxadiazol-2-yl)-4-fluoro-2-(pyridin-2-ylmethyl)isoindolin-1-one] to `O=C1c2cc(-c3nnc(C(F)F)o3)cnc2CN1Cc1ccc(F)cc1` [Example 328, 3-(5-(difluoromethyl)-1,3,4-oxadiazol-2-yl)-6-(4-fluorobenzyl)-6,7-dihydro-5H-pyrrolo[3,4-b]pyridin-5-one], the inhibition at 10 µM rises from 95% to 98%.

`COC(=O)N1CC[C@@H](N2Cc3ncc(-c4nnc(C(F)F)o4)cc3C2=O)[C@H](c2ccc(F)cc2)C1` [Example 494, methyl (3R,4R)-4-(3-(5-(difluoro-methyl)-1,3,4-oxadiazol-2-yl)-5-oxo-5,7-dihydro-6H-pyrrolo[3,4-b]pyridin-6-yl)-3-(4-fluoro-phenyl) piperidine-1-carboxylate] and `COC(=O)N1CCC[C@H](N2Cc3ccc(-c4nnc(C(F)F)o4)cc3C2=O)[C@H]1c1ccc(F)cc1` (racemic) [Example 578, methyl (2RS,3SR)-3-(6-(5-(difluoromethyl)-1,3,4-oxadiazol-2-yl)-1-oxo-1,3-dihydro-2H-isoindol-2-yl)-2-(4-fluorophenyl)piperidine-1-carboxylate] are the same in inhibition at 10 µM: 100% for the first, 100% for the second.

Compared with `O=C1c2cc(-c3nnc(C(F)F)o3)cc(F)c2CN1C[C@@H]1CC(F)(F)CN1S(=O)(=O)CC(F)(F)F` [Example 344, 6-(5-(difluoromethyl)-1,3,4-oxadiazol-2-yl)-2-(((2S)-4,4-difluoro-1-((2,2,2-trifluoro-ethyl)sulfonyl)pyrrolidin-2-yl)methyl)-4-fluoroiso-indolin-1-one], `O=C1c2cc(-c3nnc(C(F)F)o3)cc(F)c2CN1[C@@H]1CCOC[C@@H]1NCC(F)(F)C(F)(F)F` [Example 375, 6-(5-(difluoromethyl)-1,3,4-oxadiazol-2-yl)-4-fluoro-2-((3R,4R)-3-((2,2,3,3,3-pentafluoropropyl)amino)tetrahydro-2H-pyran-4-yl)isoindolin-1-one] is higher in inhibition at 10 µM: 100% for the first, 101% for the second.

`O=C1c2cc(-c3nnc(C(F)F)o3)ccc2CN1[C@@H]1CCCC[C@H]1n1ccnn1` [Example 123] and `O=C1c2cc(-c3nnc(C(F)F)o3)ccc2CN1[C@@H]1CCCC[C@H]1NCC(F)(F)F` [Example 257, 6-(5-(difluoromethyl)-1,3,4-oxadiazol-2-yl)-2-((1R,2R)-2-((2,2,2-trifluoroethyl)amino)-cyclohexyl)isoindolin-1-one] are the same in inhibition at 10 µM: 101% for the first, 101% for the second.

First: COc1cccc(-c2ccccc2N2Cc3ccc(-c4nnc(C(F)F)o4)cc3C2=O)n1 [Example 302, 6-(5-(difluoromethyl)-1,3,4-oxadiazol-2-yl)-2-(2-(6-methoxypyridin-2-yl)-phenyl)isoindolin-1-one]
Second: CCOc1cc(-c2ccccc2N2Cc3ccc(-c4nnc(C(F)F)o4)cc3C2=O)ccn1 [Example 290, 6-(5-(difluoromethyl)-1,3,4-oxadiazol-2-yl)-2-(2-(2-ethoxypyridin-4-yl)-phenyl)isoindolin-1-one]
The inhibition at 10 µM of the first is higher: 100% for the first, 99% for the second.

Going from `O=C1c2cc(-c3nnc(C(F)F)o3)ccc2CN1c1ccccc1-c1ccc(C2CC2)cc1` [Example 285, 2-(4′-cyclopropylbiphenyl-2-yl)-6-(5-(difluoromethyl)-1,3,4-oxadiazol-2-yl)isoindolin-1-one] to `O=C1c2cc(-c3nnc(C(F)F)o3)cc(F)c2CN1c1ccccc1-c1cccc(F)c1` [Example 393, 6-(5-(difluoro-methyl)-1,3,4-oxadiazol-2-yl)-4-fluoro-2-(3′-fluorobiphenyl-2-yl)isoindolin-1-one], the inhibition at 10 µM rises from 95% to 99%.

First: CC(F)(F)C(=O)N[C@@H]1CCC(F)(F)C[C@H]1N1Cc2ccc(-c3nnc(C(F)F)o3)cc2C1=O [Example 637, N-((1R,2R)-2-(6-(5-(difluoromethyl)-1,3,4-oxadiazol-2-yl)-1-oxo-1,3-dihydro-2H-isoindol-2-yl)-4,4-difluorocyclohexyl)-2,2-difluoropropanamide]
Second: CC(F)(F)C(=O)N[C@H]1CCCC[C@H]1N1Cc2ccc(-c3nnc(C(F)F)o3)cc2C1=O [Example 258, N-((1S,2R)-2-(6-(5-(difluoro-methyl)-1,3,4-oxadiazol-2-yl)-1-oxo-1,3-dihydro-2H-isoindol-2-yl)cyclohexyl)-2,2-difluoro-propanamide]
The inhibition at 10 µM of the first is lower: 100% for the first, 101% for the second.

`O=C1c2cc(-c3nnc(C(F)F)o3)cnc2CN1[C@@H]1CCCC[C@H]1n1nnc2ccccc21` [Example 537, 6-((1R,2R)-2-(1H-benzotriazol-1-yl)cyclohexyl)-3-(5-(difluoromethyl)-1,3,4-oxadiazol-2-yl)-6,7-dihydro-5H-pyrrolo[3,4-b]pyridin-5-one] and `O=C1c2cc(-c3nnc(C(F)F)o3)cnc2CN1[C@@H]1COCC[C@H]1Oc1cccc(F)c1` [Example 652, 1,5-anhydro-2,4-dideoxy-2-(3-(5-(difluoromethyl)-1,3,4-oxadiazol-2-yl)-5-oxo-5,7-dihydro-6H-pyrrolo[3,4-b]pyridin-6-yl)-3-O-(3-fluorophenyl)-threo-pentitol (optical isomer)] are the same in inhibition at 10 µM: 100% for the first, 100% for the second.

Going from `O=C1c2cc(-c3nnc(C(F)F)o3)cnc2CN1c1ccc(F)cc1-c1cccc(F)c1` [Example 409, 6-(3′,5-difluoro-biphenyl-2-yl)-3-(5-(difluoro-methyl)-1,3,4-oxadiazol-2-yl)-6,7-dihydro-5H-pyrrolo [3,4-b]pyridin-5-one] to `Cn1ccc(N2Cc3ccc(-c4nnc(C(F)F)o4)cc3C2=O)n1` [Example 442, 6-(5-(difluoro-methyl)-1,3,4-oxadiazol-2-yl)-2-(1-methyl-1H-pyrazol-3-yl)isoindolin-1-one], the inhibition at 10 µM falls from 99% to 94%.

Source: patent publication US10435399B2, “HDAC6 inhibitory heterocyclic compound” (TAKEDA PHARMACEUTICAL COMPANY LIMITED, priority 2017, dated 2019)
